{"source": "patent US20250051355A1", "about": "“COMPOUNDS, COMPOSITIONS, AND METHODS” (ACONCAGUA BIO, INC., priority 2023, published 2025)", "key": {"[1]": {"biological_target": "human calcitonin receptor (CTR) and RAMP3 (AMY3) (Homo sapiens, UniProt O60896+P30988)", "sequence (O60896 24-148, one chain of several)": "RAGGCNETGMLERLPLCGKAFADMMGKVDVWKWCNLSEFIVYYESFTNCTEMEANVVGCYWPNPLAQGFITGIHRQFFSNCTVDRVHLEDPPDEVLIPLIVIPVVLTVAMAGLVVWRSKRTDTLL", "test": "Amylin Receptor cAMP Assay II", "format": "cell-based", "conditions": "COS-7/AMY3 cells, cAMP dynamic 2 kit, read-out: Amylin Receptor cAMP Stimulation Activity: EC50", "text": "Amylin Receptor cAMPAssay II\nAMYRs are heterodimers of the class B calcitonin (CT) G-protein-coupled receptor (CTR) and receptor activity-modifying proteins (RAMPs). All three RAMPs can interact with the CTR and form AMY1, AMY2, AMY3 with RAMP1, RAMP2 and RAMP3, respectively. Like other class B1 GPCRs, the CT receptor family is canonically coupled to Gs-mediated cAMP production, and measurement of cAMP accumulation has been the primary assay used to determine peptide selectivity and potency.\n(§1) To optimize functional activity directed toward Gas coupling, COS-7 cells were stably transfected with human calcitonin receptor (CTR) and RAMP3, simultaneously. 100×concentration of compound working solutions were prepared with 4-fold serial dilution in 384-well Echo LDV plate (Labcyte, Cat #LP-0200-BC). 200 nL/well 100×concentration of compound working solutions were moved to 384-well white microplate (Perkin Elmer, Cat #6007680) using Labcyte ECHO550. […] cells/mL COS-7/AMY3 cell suspensions prepared with assay buffer [HBSS containing 20 mM HEPES (Gibco, Cat #15630-080), 0.5 mM IBMX (Sigma, Cat #15879) and 0.1% Casein (Sigma, Cat #C4765)], 20 μL cell suspensions were added to each well of previous generated assay plate which already contains 200 nL compound at 100×concentration using ThermoFisher Multidrop Combi (2000 cells/well). Seal the plate and incubate at 37° C. with 5% CO2 for 30 min.\n(§2) After incubation, the cAMP assay signal was generated using cAMP dynamic 2 kit (Revvity, Cat #62AM4PEC). 10 μL cAMP-d2 working solution was added to each well, followed by 10 μL Anti-cAMP antibody-cryptate working solution which was added to each well using CERTUS FLEX LIQUID DISPENSER The samples were then incubated at room temperature for 1 hour protected from light. the fluorescence was read at 665 and 615 nm with Reader PerkinElmer EnVision 2105."}, "[2]": {"biological_target": "T1, human calcitonin receptor (CTR) (Homo sapiens, UniProt P30988)", "T1 construct": "expressed in transfected cells; host or cells: COS-7 (COS7-human CTR Clone #2)", "T1 sequence (P30988 25-474)": "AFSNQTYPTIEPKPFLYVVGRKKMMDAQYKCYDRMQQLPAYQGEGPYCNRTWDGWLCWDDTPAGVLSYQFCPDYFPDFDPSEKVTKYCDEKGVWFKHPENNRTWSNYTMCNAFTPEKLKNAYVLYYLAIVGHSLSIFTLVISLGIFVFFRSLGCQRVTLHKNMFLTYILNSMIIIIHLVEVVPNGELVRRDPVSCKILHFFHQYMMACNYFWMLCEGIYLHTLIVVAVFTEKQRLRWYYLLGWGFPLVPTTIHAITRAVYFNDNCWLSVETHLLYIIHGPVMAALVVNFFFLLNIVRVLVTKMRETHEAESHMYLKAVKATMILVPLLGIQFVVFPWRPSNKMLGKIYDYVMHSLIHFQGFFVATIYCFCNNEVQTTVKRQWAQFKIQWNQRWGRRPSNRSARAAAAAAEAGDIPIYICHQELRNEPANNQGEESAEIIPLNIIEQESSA", "test": "Calcitonin receptor (CTR) cAMP Assay", "format": "cell-based", "conditions": "COS7-human CTR Clone #2 cells, cAMP dynamic 2 kit; read-out: Calcitonin Receptor cAMP Stimulation Activity: EC50", "text": "Calcitonin receptor (CTR) cAMPAssay\nThe calcitonin receptor (CTR) belongs to the subfamily of GPCRs known as the secretin or ‘B’ family of GPCRs. Like other class B1 GPCRs, the CT receptor family is canonically coupled to Gs-mediated cAMP production, and measurement of cAMP accumulation has been the primary assay used to determine peptide selectivity and potency.\nas §1, with “to create COS7-human CTR Clone #2 stable cell line. 100× concentration” for “and RAMP3, simultaneously. 100×concentration”, “COS7-human CTR Clone #2” for “COS-7/AMY3”\nas §2, with “#62AM4PEC). […] cAMP-d2 working” for “#62AM4PEC). 10 μL cAMP-d2 working”"}}}
{"smiles": "Cc1nnc(-c2c(CCC3CCOCC3)nc3c(c2-c2cc4ncnc(N[C@@H]5CCc6ncccc65)c4s2)S(=O)(=O)CC3C2CC2)o1", "note": "(stereo partly drawn) [Compound 103, N—(R)-4-aza-1-indanyl(2-(3-cyclopropyl-6-(5-methyl-1,3,4-oxadiazol-2-yl)-1,1-dioxo-5-[2-(tetrahydro-2H-pyran-4-yl)ethyl]-1λ^6-thia-4-aza-7-indanyl}-1-thia-4,6-diaza-7-indenyl)amine]", "values": [{"measurement": "EC50", "setting": "[1]", "result": 1.19, "unit": "µM"}, {"measurement": "EC50", "setting": "[2]", "result": 0.0459, "unit": "µM"}]}
{"smiles": "Cc1nnc(-c2c(CCC3CCOCC3)nc3c(c2-c2ccc4c(c2)oc(=O)n4Cc2ccc(C#N)c(F)c2)C(=O)N2CCOC[C@@H]32)o1", "note": "[Compound 104, 4-[(6-((4aR)-7-(5-methyl-1,3,4-oxadiazol-2-yl)-9-oxo-6-[2-(tetrahydro-2H-pyran-4-yl)ethyl]-1,2,4,4a-tetrahydro-9H-3-oxa-5,9a-diazafluoren-8-yl}-2-oxo-1,3-benzoxazol-3-yl)methyl]-2-fluorobenzonitrile]", "values": [{"measurement": "EC50", "setting": "[1]", "result": 0.0424, "unit": "µM"}, {"measurement": "EC50", "setting": "[2]", "result": 0.00125, "unit": "µM"}]}
{"smiles": "Cc1nnc(-c2c(CCC3CCOCC3)nc3c(c2-c2ccc4c(cnn4Cc4ccc(C#N)c(F)c4)c2)C(=O)N2CCOC[C@@H]32)o1", "note": "[Compound 105, 4-[(5-((4aR)-7-(5-methyl-1,3,4-oxadiazol-2-yl)-9-oxo-6-[2-(tetrahydro-2H-pyran-4-yl)ethyl]-1,2,4,4a-tetrahydro-9H-3-oxa-5,9a-diazafluoren-8-yl}-1H-indazol-1-yl)methyl]-2-fluorobenzonitrile]", "values": [{"measurement": "EC50", "setting": "[1]", "result": 0.385, "unit": "µM"}, {"measurement": "EC50", "setting": "[2]", "result": 0.00956, "unit": "µM"}]}
{"smiles": "Cc1nnc(-c2c(CCC3CCOCC3)nc3c(c2C2CCN(C(=O)Cc4ccc(F)c(F)c4)CC2)S(=O)(=O)CC3C(C)C)o1", "note": "(centres unmarked) [Compound 106, 7-{1-[2-(3,4-difluorophenyl)acetyl]-4-piperidyl}-3-isopropyl-6-(5-methyl-1,3,4-oadiazol-2-yl)-5-[2-(tetrahydro-2H-pyran-4-yl)ethyl]-1λ^6-thia-4-aza-1,1-indandione]", "values": [{"measurement": "EC50", "setting": "[1]", "result": "> 0.1", "unit": "µM"}, {"measurement": "EC50", "setting": "[2]", "result": 3.23, "unit": "µM"}]}
{"smiles": "Cc1nnc(-c2c(CCC3CCOCC3)nc3c(c2C2CCN(C(=O)Cc4ccc(F)c(F)c4)C2)S(=O)(=O)CC3C(C)C)o1", "note": "(centres unmarked) [Compound 107, 7-{1-[2-(3,4-difluorophenyl)acetyl]-3-pyrrolidinyl}-3-isopropyl-6-(5-methyl-1,3,4-oxadiazol-2-yl)-5-[2-(tetrahydro-2H-pyran-4-yl)ethyl]-1D′-thia-4-aza-1,1-indandione]", "values": [{"measurement": "EC50", "setting": "[1]", "result": "> 0.1", "unit": "µM"}, {"measurement": "EC50", "setting": "[2]", "result": 6.58, "unit": "µM"}]}
{"smiles": "Cc1nnc(-c2c(CCC3CCOC(C)(C)C3)nc3c(c2-c2cc4ncnc(N[C@@H]5CCc6ncccc65)c4s2)S(=O)(=O)CC3C(C)C)o1", "note": "(stereo partly drawn) [Compound 108, N—(R)-4-aza-1-indanyl(2-(5-[2-(2,2-dimethyltetrahydro-2H-pyran-4-yl)ethyl]-3-isopropyl-6-(5-methyl-1,3,4-oxadiazol-2-yl)-1,1-dioxo-1λ^6-thia-4-aza-7-indanyl}-1-thia-4,6-diaza-7-indenyl)amine]", "values": [{"measurement": "EC50", "setting": "[1]", "result": 0.462, "unit": "µM"}, {"measurement": "EC50", "setting": "[2]", "result": 0.0421, "unit": "µM"}]}
{"smiles": "Cc1nnc(-c2c(CCC3CCOCC3)nc3c(c2-c2ccc4c(c2)oc(=O)n4Cc2ccc(C#N)c(F)c2)S(=O)(=O)CC3C(C)C)o1", "note": "(centres unmarked) [Compound 109, 2-fluoro-4-[(6-(3-isopropyl-6-(5-methyl-1,3,4-oxadiazol-2-yl)-1,1-dioxo-5-[2-(tetrahydro-2H-pyran-4-yl)ethyl]-1λ^6-thia-4-aza-7-indanyl}-2-oxo-1,3-benzoxazol-3-yl)methyl]benzonitrile]", "values": [{"measurement": "EC50", "setting": "[1]", "result": 0.0648, "unit": "µM"}, {"measurement": "EC50", "setting": "[2]", "result": 0.00151, "unit": "µM"}]}
{"smiles": "Cc1nnc(-c2c(CCC3CCOCC3)nc3c(c2-c2ccc4c(ccn4C(C)c4ccc(C#N)c(F)c4)c2)C(=O)N2CCOC[C@@H]32)o1", "note": "(stereo partly drawn) [Compound 110, 4-[1-(5-((4aR)-7-(5-methyl-1,3,4-oxadiazol-2-yl)-9-oxo-6-[2-(tetrahydro-2H-pyran-4-yl)ethyl]-1,2,4,4a-tetrahydro-9H-3-oxa-5,9a-diazafluoren-8-yl}-1-indolyl)ethyl]-2-fluorobenzonitrile]", "values": [{"measurement": "EC50", "setting": "[1]", "result": 0.0624, "unit": "µM"}, {"measurement": "EC50", "setting": "[2]", "result": 0.00616, "unit": "µM"}]}
{"smiles": "Cc1nnc(-c2c(CCC3CCOCC3)nc3c(c2-c2ccc4c(cnn4C(C)c4ccc(C#N)c(F)c4)c2)C(=O)N2CCOC[C@@H]32)o1", "note": "(stereo partly drawn) [Compound 111, 4-[1-(5-((4aR)-7-(5-methyl-1,3,4-oxadiazol-2-yl)-9-oxo-6-[2-(tetrahydro-2H-pyran-4-yl)ethyl]-1,2,4,4a-tetrahydro-9H-3-oxa-5,9a-diazafluoren-8-yl}-1H-indazol-1-yl)ethyl]-2-fluorobenzonitrile]", "values": [{"measurement": "EC50", "setting": "[1]", "result": 0.155, "unit": "µM"}, {"measurement": "EC50", "setting": "[2]", "result": 0.0113, "unit": "µM"}]}
{"smiles": "Cc1nnc(-c2c(CCC3CCOC(C)(C)C3)nc3c(c2-c2ccc4c(c2)oc(=O)n4Cc2ccc(C#N)c(F)c2)C(=O)N2CCOC[C@@H]32)o1", "note": "(stereo partly drawn) [Compound 112, 4-[(6-((4aR,9aR)-6-[2-(2,2-dimethyltetrahydro-2H-pyran-4-yl)ethyl]-7-(5-methyl-1,3,4-oxadiazol-2-yl)-9-oxo-1,2,4,4a-tetrahydro-9H-3-oxa-5,9a-diazafluoren-8-yl}-2-oxo-1,3-benzoxazol-3-yl)methyl]-2-fluorobenzonitrile]", "values": [{"measurement": "EC50", "setting": "[1]", "result": 0.124, "unit": "µM"}, {"measurement": "EC50", "setting": "[2]", "result": 0.0053, "unit": "µM"}]}
{"smiles": "Cc1nnc(-c2c(CCC3CCOCC3)nc3c(c2-c2cc4ccnc(N[C@@H]5CCc6ncccc65)c4s2)c(=O)n2n3CCC2)o1", "note": "[Compound 113, 9-{7-[(R)-4-aza-1-indanylamino]-1-thia-6-aza-2-indenyl}-10-(5-methyl-1,3,4-oxadiazol-2-yl)-11-[2-(tetrahydro-2H-pyran-4-yl)ethyl]-2,6,12-triazatricyclo[6.4.0.0^2,6]dodeca-1(12),8,10-trien-7-one]", "values": [{"measurement": "EC50", "setting": "[1]", "result": 1.08, "unit": "µM"}, {"measurement": "EC50", "setting": "[2]", "result": 0.0956, "unit": "µM"}]}
{"smiles": "Cc1nnc(-c2c(CCC3CCOCC3)nc3c(c2-c2ccc4c(c2)oc(=O)n4C(C)c2ccc(C#N)c(F)c2)c(=O)n2n3CCC2)o1", "note": "(centres unmarked) [Compound 114, 2-fluoro-4-[1-(6-(10-(5-methyl-1,3,4-oxadiazol-2-yl)-7-oxo-11-[2-(tetrahydro-2H-pyran-4-yl)ethyl]-2,6,12-triazatricyclo[6.4.0.0^2,6]dodeca-1(12),8,10-trien-9-yl}-2-oxo-1,3-benzoxazol-3-yl)ethyl]benzonitrile]", "values": [{"measurement": "EC50", "setting": "[1]", "result": 0.135, "unit": "µM"}, {"measurement": "EC50", "setting": "[2]", "result": 0.00415, "unit": "µM"}]}
{"smiles": "Cc1nnc(-c2c(CCC3C4COCC34)nc3c(c2-c2cc4ccnc(N[C@@H]5CCc6ncccc65)c4s2)S(=O)(=O)CC3C(C)C)o1", "note": "(stereo partly drawn) [Compound 115, N—(R)-4-aza-1-indanyl(2-[3-isopropyl-6-(5-methyl-1,3,4-oxadiazol-2-yl)-5-(2-(3-oxabicyclo[3.1.0]hex-6-yl)ethyl}-1,1-dioxo-1λ^6-thia-4-aza-7-indanyl]-1-thia-6-aza-7-indenyl}amine]", "values": [{"measurement": "EC50", "setting": "[1]", "result": 0.305, "unit": "µM"}, {"measurement": "EC50", "setting": "[2]", "result": 0.0145, "unit": "µM"}]}
